# According to US12427149B2, “Methods and compositions for the prevention and treatment of hearing loss” (Ting Therapeutics, Inc., priority 2019, dated 2025):
# Read-outs that look alike come from different tables or passages of the source.
# Assays:
# [1] = tested on: HEI-OC1 cells; assay: Protection against cisplatin-induced Caspase-3/7 activity in HEI-OC1 cells (Caspase-Glo 3/7); format: cell-based, mouse; conditions: for IC50: Mus musculus, HEI-OC1; for protection against cisplatin-induced cell death in HEI-OC1 (in words): kinase inhibitor library screen
# Procedure: A screen of a library composed of 75 kinase inhibitors was conducted to identify inhibitors that protect against cisplatin-induced hair cell loss.
# [2] = tested on: mouse cochlear explants; assay: tissue or blood; conditions: for IC50: Mus musculus; for protection against cisplatin-induced hair cell loss/death in mouse cochlear explants (in words): cisplatin 150 μM
# Procedure: Dab alone or Dab added 1 h before cisplatin (150 μM) to P3 FVB cochlear explants for 24 h.
# Now referring to FIG. 9, testing of a B-Raf/MEK1/2 inhibitor combination in mouse cochlear explant cultures. Compounds alone or combination of the compounds were added 1 h before cisplatin (150 μM) to P3 FVB cochlear explants for 24 h, and number of outer hair cells per 160 μm of middle turn regions of the cochlea were counted by phalloidin staining, mean±SEM, P=*<0.05, P=***<0.001, compared to cisplatin alone by unpaired two-tailed Student's t-test.
# Methods of using a zebrafish model system to evaluate small molecules capable of decreasing, inhibiting or preventing sensory hair cell damage or death are provided. Zebrafish are an advantageous animal model system for studying causes and prevention of hearing loss in comparison to mammalian animal model systems. The relative inaccessibility of hair cells in mammalian organisms limits their use as a high throughput model for identifying compounds that would prevent toxin mediated and other forms of hair cell death from occurring. The lateral line neuromast hair cells of zebrafish (Danio rerio) are structurally and functionally similar to mammalian sensory hair cells. […] Compounds alone or compounds added 1 h before cisplatin (150 μM) to P3 FVB cochlear explants for 24 h, and number of outer hair cells per 160 μm of middle turn regions of the cochlea were counted by phalloidin staining, mean±SEM, P=*<0.05, P=**<0.005, ***P<0.0005 compared to cisplatin alone by unpaired two-tailed Student's t-test.
# Compounds alone (purple bar) or combination of the compounds were added 1 h before cisplatin (150 μM) to P3 FVB cochlear explants for 24 hrs, and number of outer hair cells per 160 μm of middle turn regions of the cochlea were counted by phalloidin staining, mean±SEM, P=*<0.05, P=**<0.005, compared to cisplatin alone by unpaired two-tailed Student's t-test.
# [3] = tested on: B-RAF, ERK and MEK; assay: Western blots of cisplatin activated B-Raf signaling cascade in HEI-OC1 cells; format: cell-based, mouse; conditions: 50 μM cisplatin, 1 hour; dose dependent
# Text: Western blots show representative changes of each signaling molecule upon cisplatin and Dab treatment at specific doses (5B) and times (5A).
# [4] = tested on: zebrafish lateral line neuromast hair cells; assay: Protection of zebrafish lateral line neuromast hair cells in vivo against cisplatin; parameters: species or system zebrafish (Danio rerio)
# Procedure: Lateral line neuromasts of zebrafish were stained and number of hair cells per neuromast were counted. Cisplatin (CP): 400 μM. *, **, and ***: P<0.05, 0.01, and 0.001 compared to CP alone.
# Protection of zebrafish lateral line neuromast hair cells in vivo. […] After the treatment, animals were transferred to fresh fish water to recover for 1 hour and then fixed and immunostained for GFP and otoferlin. Quantification of the number of hair cells per neuromast after the different treatments represented as mean+/−SEM. Student's t test was performed, *p<0.05, **p<0.01, ***p<0.001, compared versus CP 400 μM. Neuromasts inspected: SO3 (supraorbital line neuromast) and O1-2 (otic line neuromasts) from at least 3 different animals.
# [5] = tested on: HEI-OC1 cells; conditions: CELLTITER-GLO
# [6] = Table 1, read-out: HEI-OC1 cell line IC50
# [7] = read-out: Mouse cochlear explant IC50
# [8] = read-out: IC50, protection against cisplatin-induced hair cell loss in mouse cochlear explants
Compound,"IC50 [1, 6] [nM]",protection against cisplatin-induced cell death in HEI-OC1 (in words) [1],"IC50 [2, 7] [nM]",protection against cisplatin-induced hair cell loss/death in mouse cochlear explants (in words) [2],"LD50 in mouse cochlear explants ([2]; FVB, mouse, 24 h)","IC50 [2, 8] [nM]",also measured
O=C(Nc1cccc(Cl)c1)Nc1ncc(CCNc2ncnc3ccsc23)s1 [SNS-314],7490,potently protected,50,protected,,,protection against cisplatin-induced hair cell loss/death in mouse cochlear explants (in words) ([2]; listed as SNS314): potently protected
CC(C)(C)c1nc(-c2cccc(NS(=O)(=O)c3c(F)cccc3F)c2F)c(-c2ccnc(N)n2)s1 [Dabrafenib],13500,potently protected,30,potently protected,13.47 µM,30,"effect on cisplatin-mediated activation of B-RAF, ERK and MEK (in words) [3]: mitigates; Zebrafish cisplatin protection at concentration ([4]; FIG. 11A): 0.100 µM; Zebrafish protection ([4]; Table 1, protective concentration, cisplatin 400 μM): 0.100 µM"
CCCS(=O)(=O)Nc1ccc(F)c(C(=O)c2c[nH]c3ncc(-c4ccc(Cl)cc4)cc23)c1F [Vemurafenib],,,,,greater than 3 μM,~200,
CCOc1cc2ncc(C#N)c(Nc3ccc(F)c(Cl)c3)c2cc1NC(=O)/C=C/CN(C)C [Pelitinib],,,,,,,"IC50 ([1]; cisplatin-Caspase-Glo 3/7, read-out: IC50, protection against cisplatin-induced Caspase-3/7 activity in HEI-OC1 cells): 600 nM; protection of outer hair cells against cisplatin-induced hair cell loss in mouse cochlear explants ([2]; 1 hour pre-incubation, N=3): 49%"
Cn1c(Nc2ccc(C(F)(F)F)cc2)nc2cc(Oc3ccnc(-c4ncc(C(F)(F)F)[nH]4)c3)ccc21 [RAF-265],,,,protected,greater than 3 μM,20,
CC1(COc2ccc3c(c2)ncn3-c2ccc3cccc(N4CCC(N)CC4)c3n2)COC1 [Crenolanib],2400,potently protected,350,,,,protection against cisplatin-induced hair cell loss/death in mouse cochlear explants (in words) ([2]; listed as CRENOLANIB): potently protected; protection against cisplatin-induced hair cell loss/death in mouse cochlear explants (in words) ([2]; listed as crenolanib): protected
CCCS(=O)(=O)Nc1ccc(F)c(C(=O)c2c[nH]c3ncc(Cl)cc23)c1F [PLX-4750],,,,protected,,200,
FC(F)(F)c1ccc(/C=C/c2nc(COc3ccc(CCCCn4ccnn4)cc3)co2)cc1 [Mubritinib],39,potently protected,2,potently protected,,2.5,"IC50 ([1]; read-out: IC50, protection against cisplatin-induced Caspase-3/7 activity in HEI-OC1 cells): 4 nM; LD50 in HEI-OC1 cells [5]: > 55 µM; LD50 in mouse cochlear explants ([2]; FVB, mouse): > 0.5 µM"
CC(=O)Nc1cccc(-n2c(=O)n(C3CC3)c(=O)c3c(Nc4ccc(I)cc4F)n(C)c(=O)c(C)c32)c1 [Trametinib],,,,,,50,LD50 in mouse cochlear explants [2]: greater than 3 μM
